Measurements from paper PMC5830615 (Scientific Reports, 2018).

Tests used:
[1] = tested on: soluble adenylyl cyclase (sAC); assay: FRET assay of soluble adenylyl cyclase activity in HEK293-sAC cells transduced with H188; format: cell-based
Protocol: These actions of Rp-8-Br-cAMPS-pAB were not reproduced by the negative control 4-acetoxybenzy alcohol (4-Abn-OH) that lacks the cAMP moiety (Fig. 3e1,e2)[36].
HEK293-H188-C24 cells stably expressing H188 were plated at 80% confluence on 96-well clear-bottom assay plates (Costar 3904, Corning, NY) coated with rat tail collagen (Collaborative Biomedical Products, Bedford, MA). HEK293 cells stably expressing select GPCRs were transduced for 16 hours with H188 virus at a density of ca. 60,000 cells/well under conditions in which the multiplicity of infection (m.o.i.) was equivalent to 25 viral particles per cell. For all assays, the culture media was then removed and replaced by 200 μl/well of a standard extracellular saline (SES) solution supplemented with 11 mM glucose and 0.1% BSA[31],[34]–[36]. The composition of the SES was (in mM): 138 NaCl, 5.6 KCl, 2.6 CaCl2, 1.2 MgCl2, 11.1 glucose, and 10 Hepes (295 mOsmol, pH 7.4). Real-time kinetic assays of FRET were performed using a FlexStation 3 microplate reader equipped with monochromators (Molecular Devices, Sunnyvale, CA). Excitation light was delivered at 435/9 nm (455 nm cut-off), and emitted light was detected at 485/15 nm (CFP) or 535/15 nm (YFP)[31],[34]–[36]. […] The 485/535 emission ratio was calculated for each well and the mean +/− s.d. values for 12 wells were averaged. […]

[2] = tested on: human GLP-1R; assay: FRET cAMP assay in HEK293-GLP-1R cells (stable human GLP-1R) virally transduced with H188; format: cell-based; settings: HEK293-GLP-1R cells transduced with H188
Protocol: (§1) HEK293-H188-C24 cells stably expressing H188 were plated at 80% confluence on 96-well clear-bottom assay plates (Costar 3904, Corning, NY) coated with rat tail collagen (Collaborative Biomedical Products, Bedford, MA). HEK293 cells stably expressing select GPCRs were transduced for 16 hours with H188 virus at a density of ca. 60,000 cells/well under conditions in which the multiplicity of infection (m.o.i.) was equivalent to 25 viral particles per cell. For all assays, the culture media was then removed and replaced by 200 μl/well of a standard extracellular saline (SES) solution supplemented with 11 mM glucose and 0.1% BSA[31],[34]–[36]. The composition of the SES was (in mM): 138 NaCl, 5.6 KCl, 2.6 CaCl2, 1.2 MgCl2, 11.1 glucose, and 10 Hepes (295 mOsmol, pH 7.4). Real-time kinetic assays of FRET were performed using a FlexStation 3 microplate reader equipped with monochromators (Molecular Devices, Sunnyvale, CA). Excitation light was delivered at 435/9 nm (455 nm cut-off), and emitted light was detected at 485/15 nm (CFP) or 535/15 nm (YFP)[31],[34]–[36]. The emission intensities were the averages of 12 excitation flashes for each time point per well.

[3] = tested on: wild-type HEK293 cells; assay: FRET cAMP assay in wild-type HEK293 cells transduced with H188 (negative control); format: cell-based, human; settings: WT HEK293 lacking recombinant receptors, H188 virus; IBMX at 50 μM
Protocol: as §1

[4] = tested on: H188 (Epac1-based cAMP biosensor); assay: FRET response of biosensor H188 to cAMP analogs and Epac inhibitors in HEK293-H188-C24 cells; format: cell-based
Text: (§2) H188 contains the cAMP sensor Epac1 in which the full-length protein is truncated to remove the Disheveled, Egl-10, and Pleckstrin (DEP) membrane-targeting domain so that its expression is confined largely to the cytoplasm (Fig. 2a,b)[30]. T781A and F782A mutations introduced within the CDC25 homology domain disrupt guanine nucleotide exchange factor (GEF) activity so that binding of cAMP to H188 is not linked to downstream signaling events mediated by the Epac1 effector protein Rap1 GTPase (Fig. 2a)[30]. In H188 the Epac1 backbone is flanked by an mTurquoise2Δ FRET donor chromophore at the N-terminus, and tandem cp173 Venus-Venus FRET acceptor chromophores at the C-terminus (Fig. 2a). Binding of cAMP reduces FRET so that when exciting with 440 nm light, there is an increase of 485 nm (mTuquoise2Δ) and a decrease of 535 nm (cp173 Venus-Venus) emission fluorescence. This ΔFRET is measured as an increase of the 485/535 nm FRET ratio.
HEK293-H188-C24 cells stably expressing H188 were plated at 80% confluence on 96-well clear-bottom assay plates (Costar 3904, Corning, NY) coated with rat tail collagen (Collaborative Biomedical Products, Bedford, MA). HEK293 cells stably expressing select GPCRs were transduced for 16 hours with H188 virus at a density of ca. 60,000 cells/well under conditions in which the multiplicity of infection (m.o.i.) was equivalent to 25 viral particles per cell. For all assays, the culture media was then removed and replaced by 200 μl/well of a standard extracellular saline (SES) solution supplemented with 11 mM glucose and 0.1% BSA[31],[34]–[36]. The composition of the SES was (in mM): 138 NaCl, 5.6 KCl, 2.6 CaCl2, 1.2 MgCl2, 11.1 glucose, and 10 Hepes (295 mOsmol, pH 7.4). Real-time kinetic assays of FRET were performed using a FlexStation 3 microplate reader equipped with monochromators (Molecular Devices, Sunnyvale, CA). Excitation light was delivered at 435/9 nm (455 nm cut-off), and emitted light was detected at 485/15 nm (CFP) or 535/15 nm (YFP)[31],[34]–[36]. The emission intensities were the averages of 12 excitation flashes for each time point per well. Test solutions dissolved in SES were placed in V-bottom 96-well plates (Greiner Bio-One, Monroe, NC), and an automated pipetting procedure was used to transfer 50 μl of each test solution to each well of the assay plate containing monolayers of these cells. The 485/535 emission ratio was calculated for each well and the mean +/− s.d. values for 12 wells were averaged. To facilitate comparisons amongst different experiments, these FRET ratio values were normalized using baseline subtraction so that a y-axis value of 1 corresponds to the initial baseline FRET ratio, whereas a value of 2 corresponds to a doubling of the FRET ratio. The time course of the ΔFRET ratio was plotted after exporting data to Origin 8.0 (OriginLab, Northampton, MA). Origin 8.0 was also used for generation of Hill plots describing dose-response relationships.

[5] = tested on: HEK293-H188-C24 cells (cAMP production); assay: High-throughput FRET assay of cAMP, forskolin in HEK293-H188-C24 cells; format: cell-based; settings: Homo sapiens; HEK293-H188-C24 monolayers, 96-well microplate reader, 485/535 nm FRET ratio; read-out: EC50 of forskolin for H188 ΔFRET (sensitivity)
Text: as §2
HEK293-H188-C24 cells stably expressing H188 were plated at 80% confluence on 96-well clear-bottom assay plates (Costar 3904, Corning, NY) coated with rat tail collagen (Collaborative Biomedical Products, Bedford, MA). […] Real-time kinetic assays of FRET were performed using a FlexStation 3 microplate reader equipped with monochromators (Molecular Devices, Sunnyvale, CA). […]

[6] = tested on: rat GIP receptor; assay: FRET cAMP assay in HEK293 cells stably expressing GIP receptor, transduced with H188; format: cell-based; settings: GIP 3 nM
Protocol: as §1

[7] = tested on: rat glucagon receptor; assay: FRET cAMP assay in HEK293 cells stably expressing glucagon receptor, transduced with H188; format: cell-based; settings: Glucagon 3 nM
Protocol: as §1

CC(C)Cn1c(=O)n(C)c(=O)c2[nH]cnc21 [IBMX, isobutylmethylxanthine]
Effect on levels of cAMP in HEK293-sAC cells ([1]; IBMX 50 μM, H188 by viral transduction): raised levels of cAMP | Effect on the cAMP-elevating action of GLP-1 [2]: potentiated the action of GLP-1 | Effect on levels of cAMP in wild-type HEK293 cells [3]: failed to raise levels of cAMP

Nc1nc(Cl)cc(N(Cc2ccsc2)C2CC2)n1 [LRE1]
Effect on IBMX-induced rise of cAMP in HEK293-sAC cells ([1]; LRE1 50 μM versus IBMX 50 μM): blocked

Cl.c1ccc(C2CCCC2NC2=NCCCCCCCCCCC2)cc1 (stereo not shown) [MDL-12,330 A]
Effect on the cAMP-elevating action of GLP-1 [2]: suppressed the action of GLP-1

CC(=O)Oc1ccc(CSP2(=O)OC[C@H]3O[C@@H](n4c(Br)nc5c(N)ncnc54)[C@H](O)[C@@H]3O2)cc1 (stereo partly shown) [Rp-8-Br-cAMPS-pAB]
Effect on baseline FRET ratio when administered alone [4]: weak partial agonist effect | Effect on ΔFRET measured in response to forskolin [4]: inhibited the ΔFRET

C=C[C@@]1(C)CC(=O)[C@]2(O)[C@@]3(C)[C@@H](O)CCC(C)(C)[C@@H]3[C@H](O)[C@H](OC(C)=O)[C@@]2(C)O1 [forskolin]
EC50 [5]: 500 nM

gastric inhibitory polypeptide (YAEGTFISDYSIAMDKIHQQDFVNWLLAQKGKKNDWKHNITQ) [GIP, hormone]
Effect on cAMP at GIP receptor, 3 nM [6]: did raise levels of cAMP

glucagon
Effect on cAMP at glucagon receptor, 3 nM [7]: did raise levels of cAMP
